# Experimental data from article PMC6471705, “Evaluation of the Enzyme Inhibitory and Antioxidant Activities of Entada spiralis Stem Bark and Isolation of the Active Constituents” (Molecules, 2019).
# Values joined by “and” are separate entries in the source; they are usually repeats but may differ in a detail not shown here. Equal entries are not always repeated. Where two headings read alike, the source gives them in different places.
# Tests used:
# [1] = DPPH radical scavenging assay; conditions: for IC50: Table 3, molar units; for IC50 DPPH Assay: mean ± SEM of triplicate
# Procedure: Modified methods from Sulaiman et al. and Ahmed et al. were used. Briefly, 150 µL of freshly prepared DPPH^• solution (0.4 M concentration) was carefully introduced into 96 round microplate wells each. 100 µL of sample/ standard (7.81–500 µg/mL) were added. Blanks contained only methanol and DPPH^•. Ascorbic acid (dissolved in distilled water) and quercetin (dissolved in MeOH) were used as standard. The plate was left in the dark for 25 min to activate. […] Tests were conducted in triplicate and the percentage inhibition of each sample/standard was calculated using the following equation:(1) (% DPPH inhibition)= [Ac−As/Ac] ×100 where, Ac = absorbance of DPPH radical in MeOH, As = absorbance of DPPH radical in sample or standard. IC50 values obtained from graphical plot from percentage inhibition against concentration were used to define the radial scavenging activity of each sample.
# [2] = ABTS radical scavenging assay; conditions: for IC50: Table 3, molar units; for IC50 ABTS Assay: mean ± SEM of triplicate
# Procedure: A method reported by Zheleva-Dimitrova et al. was adopted with slight modifications. Stock solutions of ABTS (7 mM) and potassium persulphate (2.45 mM) were prepared using distilled water. The working solution was prepared by adding 1 mL of ABTS solution to same amount of potassium persulphate solution. The reaction mixture was left overnight for 16 h to generate the intensely blue coloured ABTS^•+. 1 mL of ABTS^•+ was then added to 50 mL of MeOH and distributed (100 µL each) into a 96 microplate well containing 100 µL of serially diluted sample/ standard (7.81–125 µg/mL). Absorbance was measured at 734 nm against blank (containing sample and MeOH only). Test was conducted in triplicate. Samples were compared with trolox and ascorbic acid and percentage inhibition was calculated as follows:(2) (% ABTS inhibition)= [Ac−As/Ac] ×100 where, Ac = absorbance of ABTS^• in MeOH, As = absorbance ABTS^•+ in sample/standard.
# The radical scavenging activity was determined from the IC50 values obtained from the percentage inhibition curve against different concentrations of the sample/standard.
# [3] = Dot-blot staining assay, DPPH reagent; conditions: 1 mg/mL, compared to ascorbic acid positive control
# Procedure: (§1) Rapid detection of the free radical scavenging activity of isolated compounds from active fractions of E. spiralis methanol extract was carried out using a method adapted from Sarian et al.. Three detection agents viz., DPPH^•, ABTS^•+ and β-carotene were used. Briefly, few drops of each compound were spotted on a TLC plate (1.5 × 8 cm) using capillary tube and dried for few minutes at room temperature. The plate was then carefully dipped in 0.5% DPPH^• in methanol for few seconds. The plate was allowed to dry and the colour change was observed. Yellow spots on a purple background indicate radical scavenging activity and intensity of the yellow colour is proportional to the antioxidant activity. A TLC-β-carotene assay was also conducted using 0.05% of β-carotene in chloroform. A few drops of each sample (1 mg/mL) was spotted on TLC plate an allowed to dry after which it was dipped into β-carotene solution for 20 s. The plate was dried completely under direct sunlight for 3 h. Yellow or orange spot on a white background indicates activity. The intensity of the colour is dependent on the extent of antioxidant activity of the compound. TLC ABTS^•+ test was performed by mixing 2.45 mM of potassium persulphate with 7 mM of ABTS and kept in the dark for 16 hours to generate ABTS^•+. Already spotted TLC plates were then dipped into it for 10 s and allowed to dry at room temperature. White or orange spots on a bluish green background indicates activity.
# [4] = Dot-blot staining assay, ABTS reagent; conditions: 1 mg/mL, compared to ascorbic acid positive control
# Procedure: as §1
# [5] = Dot-blot staining assay, β-carotene; conditions: 1 mg/mL, compared to ascorbic acid positive control
# Procedure: as §1
# α-amylase = molecular target: T1, α-amylase (Sus scrofa, UniProt P00690); test: In vitro α-amylase inhibitory assay (starch-iodine method); format: biochemical; conditions: mean ± SEM of triplicate
# T1 sequence (P00690 16-511): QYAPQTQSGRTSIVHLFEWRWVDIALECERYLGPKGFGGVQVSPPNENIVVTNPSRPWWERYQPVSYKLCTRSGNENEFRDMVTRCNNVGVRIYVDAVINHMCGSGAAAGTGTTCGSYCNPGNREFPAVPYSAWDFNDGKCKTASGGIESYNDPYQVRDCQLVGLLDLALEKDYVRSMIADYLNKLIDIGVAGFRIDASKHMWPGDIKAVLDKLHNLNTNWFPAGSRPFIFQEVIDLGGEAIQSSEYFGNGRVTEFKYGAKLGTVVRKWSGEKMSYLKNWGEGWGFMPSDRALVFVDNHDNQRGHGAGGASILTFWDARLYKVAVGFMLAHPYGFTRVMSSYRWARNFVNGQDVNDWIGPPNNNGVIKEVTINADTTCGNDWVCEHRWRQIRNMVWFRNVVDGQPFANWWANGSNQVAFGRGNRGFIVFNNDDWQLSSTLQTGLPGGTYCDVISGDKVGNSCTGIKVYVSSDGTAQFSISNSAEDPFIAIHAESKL
# Procedure: The procedure proposed by Johnson et al. was adopted and modified for a microplate-based method carried out by Xiao et al.. Briefly, 25 µL of α-amylase solution (1 U/mL in 0.2 M phosphate buffer at pH 7) was introduced into 96 well flat bottom microplates followed by addition of 25 µL of serially diluted sample/standard (7.8–1000 µg/mL) and incubated for 5 min at 37 °C followed by 25 µL of 1% starch in buffer (boiled for 15 min) and re-incubated for 45 min at 50 °C. Next was the addition of 100 µL of 1% iodine solution and 50 µL of distilled water. The microplate was tightly covered during incubation to prevent evaporative loss. […] All determinations including sample, control, and blank were conducted in triplicate under the same reaction conditions. […] Inhibitory activity was determined using the following equation:(3) (% enzyme inhibition)= 1−[Abs/Contr] ×100 where, Abs is the absorbance of the sample or standard. Contr is the absorbance of the control without enzyme.
# α-glucosidase [6] = molecular target: α-glucosidase (Saccharomyces cerevisiae, UniProt P53341); test: In vitro α-glucosidase inhibitory assay (pNPG substrate); format: biochemical
# Procedure: This assay used a method adapted from Johnson et al. with slight modifications employing α-glucosidase (enzyme) obtained from Saccharomyces cerevisiae (1 U/mL) dissolved in 50 mM phosphate buffer (pH 6.9). 100 µL of enzyme (in 0.1M phosphate buffer) was added into 96 microplate well containing 50 µL of sample/ standard 7.8–1000 µg/mL and incubated at 37 °C for 10 min. Next was the addition of 50 µL of the substrate, p-nitrophenyl glucopyranoside (5 mM in 0.1 phosphate buffer at pH 6.9) and re-incubated for 5 min at 37 °C. The reaction was terminated by the addition of 100 µL of 0.1 M Na2CO3 and absorbance was measured at 405 nm.
# Experiments were conducted in triplicate.
# α-glucosidase [7] = molecular target: α-glucosidase; design: method as in doi:10.1016/j.foodres.2014.01.029; conditions: isolated from Rhodiola crenulata root; cited from earlier work
# human pancreatic amylase = conditions: cited from earlier work
# [8] = Table 3, molar units, read-out: IC50 α-Glucosidase (converted)
# [9] = mean ± SEM of triplicate, read-out: IC50 α-Glucosidase (converted)
# Chain of α-glucosidase (Saccharomyces cerevisiae, UniProt P53341) (P53341 whole entry): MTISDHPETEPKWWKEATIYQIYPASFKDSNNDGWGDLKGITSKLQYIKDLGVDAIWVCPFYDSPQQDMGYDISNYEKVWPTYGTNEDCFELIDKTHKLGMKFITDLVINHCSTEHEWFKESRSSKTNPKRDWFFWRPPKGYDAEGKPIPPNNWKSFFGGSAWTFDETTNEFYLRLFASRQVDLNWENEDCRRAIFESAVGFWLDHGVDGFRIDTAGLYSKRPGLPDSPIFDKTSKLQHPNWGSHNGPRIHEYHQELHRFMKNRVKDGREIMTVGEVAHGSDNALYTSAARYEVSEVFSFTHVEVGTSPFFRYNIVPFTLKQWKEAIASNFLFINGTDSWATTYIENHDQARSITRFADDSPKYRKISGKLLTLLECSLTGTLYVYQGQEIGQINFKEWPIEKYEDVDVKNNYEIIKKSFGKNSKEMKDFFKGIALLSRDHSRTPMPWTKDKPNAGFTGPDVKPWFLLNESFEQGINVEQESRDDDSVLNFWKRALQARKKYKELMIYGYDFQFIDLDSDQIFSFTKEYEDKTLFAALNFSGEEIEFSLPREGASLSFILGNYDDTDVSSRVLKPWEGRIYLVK
IC50 DPPH Assay [1],IC50 DPPH Assay ([1]; listed as ascorbic acid) [µg/mL],Compound,IC50 [1] [µM],IC50 [2] [µM],IC50 ABTS Assay [2],"Dot-blot spot intensity, DPPH [3]","Dot-blot spot intensity, ABTS [4]","Dot-blot spot intensity, β-carotene [5]",IC50 α-Amylase (α-amylase),IC50 (α-glucosidase [6]; [8]) [µM],IC50 (α-glucosidase [6]; [9]) [µM],"IC50 (α-glucosidase [6]; IC50 α-Glucosidase, Table 3, molar units) [µM]","IC50 (α-glucosidase [6]; IC50 α-Glucosidase, mean ± SEM of triplicate) [µM]",IC50 (α-glucosidase [6]; read-out: IC50 α-Glucosidase (converted)),IC50 (α-glucosidase [7]) [µM],Ki (human pancreatic amylase) [µM]
24.67 ± 0.45 ^A µg/mL,5.38 ± 1.26,"O=C1O[C@H]([C@@H](O)CO)C(O)=C1O [Ac, ascorbic acid, reference compound]",140,95,16.74± 1.76 ^A µg/mL,,,,,,,,,,,
11.29 ± 0.26 µg/mL,,"O=c1c(O)c(-c2ccc(O)cc2)oc2cc(O)cc(O)c12 [FEQ-3, kaempferol]",39,7,2.10 ± 0.51 µg/mL,strong intensity,strong intensity,strong intensity,,,,,,,,
66.17 ± 8.03 µg/mL,,"COc1cc(O)c2c(=O)c(OC)c(-c3ccc(O)c(OC)c3)oc2c1 [FEQ-4, pachypodol]",190,100,,low intensity,strong intensity,low intensity,,220,219,,,,,
,,"Oc1cc(O)c2c(c1)O[C@H](c1ccc(O)c(O)c1)[C@H](O)C2 [FEQ-8, (−)-epicatechin]",40,3.9,1.12 ± 0.09 µg/mL,strong intensity,strong intensity,strong intensity,did not show any observable α-amylase inhibition,340,341,,,,29.9 ± 2.2,
29.82 ± 3.73 ^A µg/mL,,"O=c1c(O)c(-c2ccc(O)c(O)c2)oc2cc(O)cc(O)c12 [Qc, quercetin, reference compound]",99,,,,,,,,,,,,,
,,"Cc1c(C)c2c(c(C)c1O)CCC(C)(C(=O)O)O2 (stereo not drawn) [Tx, 6-hydroxy-2,5,7,8-tetramethylchroman-2-carboxylic acid, reference compound]",,61,15.23 ± 2.15 ^A µg/mL,,,,,,,,,,,
,,montbretin A,,,,,,,,,,,,,,0.008

Compound,IC50 DPPH Assay [1],IC50 DPPH Assay ([1]; listed as ascorbic acid) [µg/mL],IC50 [1] [µM],IC50 [2] [µM],IC50 ABTS Assay [2],"Dot-blot spot intensity, DPPH [3]","Dot-blot spot intensity, ABTS [4]","Dot-blot spot intensity, β-carotene [5]",IC50 α-Amylase (α-amylase),IC50 (α-glucosidase [6]; [8]) [µM],IC50 (α-glucosidase [6]; [9]) [µM],"IC50 (α-glucosidase [6]; IC50 α-Glucosidase, Table 3, molar units) [µM]","IC50 (α-glucosidase [6]; IC50 α-Glucosidase, mean ± SEM of triplicate) [µM]",IC50 (α-glucosidase [6]; read-out: IC50 α-Glucosidase (converted)),IC50 (α-glucosidase [7]) [µM],Ki (human pancreatic amylase) [µM]
"CCCCCCOC(=O)/C=C/c1ccc(O)c(OC)c1 [FEQ-2, (E)-hexyl 3-(4-hydroxy-3-methoxyphenyl) acrylate]",13.79 ± 2.13 µg/mL,,50,10,4.69 ± 1.25 µg/mL,strong intensity,strong intensity,strong intensity,did not show any observable α-amylase inhibition,530,535,,,,,
"O=C(O)c1cc(O)c(O)c(O)c1 [FEQ-5, gallic acid]",6.15 ± 0.38 µg/mL,,36,7.5,1.28 ± 0.89 µg/mL,strong intensity,strong intensity,strong intensity,,,,38,38.1,,,
"Oc1cc(O)c2c(c1)O[C@H](c1ccc(O)c(O)c1)[C@@H](O)C2 [FEQ-7, (+)-catechin]",12.48 ± 1.55 µg/mL,,43,6.4,1.86 ± 0.15 µg/mL,strong intensity,strong intensity,strong intensity,did not show any observable α-amylase inhibition,,,,,351 µM and 350 µM,,
